Experimental data taken from patent publication US20180256592A1, “ANTIBACTERIAL COMPOSITIONS” (priority 2015, published 2018).

How the values were obtained:
Format in all cases: cell-based
[1] = test system: Klebsiella H 515 (KPC, class A); assay: MIC by agar dilution (MHA, CLSI); conditions: for MIC: drug alone
Protocol: (§1) The antibacterial activity of combinations according to the invention was investigated against various bacterial strains. In a typical study, minimum inhibitory concentrations (MICs) were determined using Muller Hinton Agar (MHA) (BD, USA) according to Clinical and Laboratory Standards Institute (CLSI) recommendations, (Clinical and Laboratory Standards Institute (CLSI), Performance Standards for Antimicrobial Susceptibility Testing, 20th Informational Supplement, M 100-S20, Volume 30, No. 1, 2010). In short, the inocula were adjusted to deliver about […] colony forming units (CFU) per spot with a multipoint inoculator (Applied Quality Services, UK). The plates were pored with doubling concentration range of the test combinations according to invention containing MHA. The plates were inoculated and were incubated at 35° C. for 18 hours.

[2] = test system: Klebsiella J 102 (TEM, SHV, OMP); assay: MIC by agar dilution (MHA, CLSI); conditions: for MIC: drug alone
Protocol: as §1

[3] = test system: Klebsiella H 520 (KPC, class A); assay: MIC by agar dilution (MHA, CLSI); conditions: for MIC: drug alone
Protocol: as §1

[4] = test system: Klebsiella J 101 (TEM, SHV, OMP); assay: MIC by agar dilution (MHA, CLSI); conditions: for MIC: drug alone
Protocol: as §1

[5] = test system: Klebsiella H 523 (KPC, class A); assay: MIC by agar dilution (MHA, CLSI); conditions: for MIC: drug alone
Protocol: as §1

[6] = test system: NCTC KP 13442 (OXA-48); assay: MIC by agar dilution (MHA, CLSI); conditions: for MIC: drug alone
Protocol: as §1

[7] = test system: Klebsiella H 521 (KPC, class A); assay: MIC by agar dilution (MHA, CLSI); conditions: for MIC: drug alone
Protocol: as §1

[8] = test system: Klebsiella J 117 (SHV, OMP); assay: MIC by agar dilution (MHA, CLSI); conditions: for MIC: drug alone
Protocol: as §1

[9] = test system: KP S 440 (OXA 181, SHV, TEM, CTX-M 1); assay: MIC by agar dilution (MHA, CLSI); conditions: for MIC: drug alone
Protocol: as §1

[10] = test system: Klebsiella J 130 (SHV, OMP); assay: MIC by agar dilution (MHA, CLSI); conditions: for MIC: drug alone
Protocol: as §1

[11] = test system: KP S 691 (OXA 181, SHV, TEM, CTX-M 1); assay: MIC by agar dilution (MHA, CLSI)
Protocol: as §1

[12] = test system: highly resistant gram negative bacterial strains; assay: MIC by agar dilution (MHA, CLSI), whole strain panel of Table 1
Protocol: as §1

[13] = KP S 691 (OXA 181, SHV, TEM, CTX-M 1)

C[C@@H](O)[C@H]1C(=O)N2C(C(=O)O)=C(SCCN=CN)C[C@H]12 [Imipenem]
2 µg/mL: MIC [6] | MIC [8] | MIC [9]
16 µg/mL: MIC [1]
4 µg/mL: MIC [4] | MIC [10]
8 µg/mL: MIC [2]
> 32 µg/mL: MIC [3] | MIC [5] | MIC [7]

Nc1nc(/C(=C/CC(=O)O)C(=O)N[C@@H]2C(=O)N3C(C(=O)O)=CCS[C@H]23)cs1 [Ceftibuten, ceftibuten]
32 µg/mL: MIC in presence of Sulbactam (4 μg/ml) ([2]; + sulbactam 4 μg/ml) | MIC in presence of Tazobactam (4 μg/ml) ([2]; + tazobactam 4 μg/ml) | MIC [2] | MIC [3] | MIC in presence of Sulbactam (4 μg/ml) ([4]; + sulbactam 4 μg/ml) | MIC in presence of Tazobactam (4 μg/ml) ([4]; + tazobactam 4 μg/ml) | MIC [7] | MIC in presence of Sulbactam (4 μg/ml) ([8]; + sulbactam 4 μg/ml) | MIC in presence of Tazobactam (4 μg/ml) ([8]; + tazobactam 4 μg/ml) | MIC [8]
16 µg/mL: MIC [1] | MIC in presence of Tazobactam (4 μg/ml) ([3]; + tazobactam 4 μg/ml) | MIC [5] | MIC in presence of Sulbactam (4 μg/ml) ([7]; + sulbactam 4 μg/ml) | MIC in presence of Tazobactam (4 μg/ml) ([7]; + tazobactam 4 μg/ml) | MIC [9]
4 µg/mL: MIC in presence of Clavulanic acid (4 μg/ml) [1] | MIC in presence of Clavulanic acid (4 μg/ml) [3] | MIC in presence of Clavulanic acid (4 μg/ml) [5] | MIC in presence of Sulbactam (4 μg/ml) ([5]; + sulbactam 4 μg/ml) | MIC in presence of Clavulanic acid (4 μg/ml) [7] | MIC in presence of Sulbactam (4 μg/ml) ([9]; + sulbactam 4 μg/ml) | MIC in presence of Tazobactam (4 μg/ml) ([9]; + tazobactam 4 μg/ml) | MIC in presence of Clavulanic acid (4 μg/ml) [10]
0.25 µg/mL: MIC in presence of Sulbactam (4 μg/ml) ([6]; + sulbactam 4 μg/ml) | MIC in presence of Tazobactam (4 μg/ml) ([6]; + tazobactam 4 μg/ml) | MIC [6]
8 µg/mL: MIC in presence of Sulbactam (4 μg/ml) ([1]; + sulbactam 4 μg/ml) | MIC in presence of Tazobactam (4 μg/ml) ([1]; + tazobactam 4 μg/ml) | MIC in presence of Clavulanic acid (4 μg/ml) [2] | MIC in presence of Sulbactam (4 μg/ml) ([3]; + sulbactam 4 μg/ml) | MIC in presence of Clavulanic acid (4 μg/ml) [4] | MIC [11] | MIC in presence of Tazobactam (4 μg/ml) ([5]; + tazobactam 4 μg/ml)
1 µg/mL: MIC in presence of Clavulanic acid (4 μg/ml) [11, 13]
significantly reduced: change of MIC values of ceftibuten in the presence of clavulanic acid ([12]; strains of Table 1, clavulanic acid 4 μg/ml)
2 µg/mL: MIC in presence of Sulbactam (4 μg/ml) ([11]; KP S 691 (OXA 181, SHV, TEM, CTX-M 1), + sulbactam 4 μg/ml) | MIC in presence of Tazobactam (4 μg/ml) ([11]; KP S 691 (OXA 181, SHV, TEM, CTX-M 1), + tazobactam 4 μg/ml) | MIC in presence of Clavulanic acid (4 μg/ml) [9]
0.12 µg/mL: MIC in presence of Clavulanic acid (4 μg/ml) [6] | MIC in presence of Clavulanic acid (4 μg/ml) [8]
> 32 µg/mL: MIC [4] | MIC [10]
>32 µg/mL: MIC in presence of Sulbactam (4 μg/ml) ([10]; + sulbactam 4 μg/ml) | MIC in presence of Tazobactam (4 μg/ml) ([10]; + tazobactam 4 μg/ml)

C=CC1=C(C(=O)O)N2C(=O)[C@@H](NC(=O)/C(=N\O)c3csc(N)n3)[C@H]2SC1 [Cefdinir, cefdinir]
> 32 µg/mL: MIC [1] | MIC [2] | MIC [3] | MIC [4] | MIC [11] | MIC [5] | MIC [7] | MIC [8] | MIC [9] | MIC [10]
16 µg/mL: MIC in presence of Clavulanic acid (4 μg/ml) [10]
32 µg/mL: MIC in presence of Clavulanic acid (4 μg/ml) [6] | MIC [6]
>32 µg/mL: MIC in presence of Clavulanic acid (4 μg/ml) [1] | MIC in presence of Clavulanic acid (4 μg/ml) [2] | MIC in presence of Clavulanic acid (4 μg/ml) [3] | MIC in presence of Clavulanic acid (4 μg/ml) [4] | MIC in presence of Clavulanic acid (4 μg/ml) [11, 13] | MIC in presence of Clavulanic acid (4 μg/ml) [5] | MIC in presence of Clavulanic acid (4 μg/ml) [7] | MIC in presence of Clavulanic acid (4 μg/ml) [9]
0.5 µg/mL: MIC in presence of Clavulanic acid (4 μg/ml) [8]

CC1(C)[C@H](C(=O)O)N2C(=O)C[C@H]2S1(=O)=O [Sulbactam, sulbactam]
> 32 µg/mL: MIC ([12]; read-out: MICs when used alone)
